Source: patent US11413278B2, “Compounds and methods for promoting stress resistance” (priority 2015, dated 2022)
Read-outs that look alike come from different tables or passages of the source.

Key:
WI-38 cells [1] = experiment: Propidium iodide (PI) cell-death imaging upon H2O2 stress; assay type: cell-based, human; conditions: for Assay 7: H2O2-resistant, at 10 uM, validated by propidium iodide (PI) cell-death imaging: w/H2O2, 3 hrs/4 hrs/5 hrs, YES/NO; for cytotoxicity at 10 µM: Homo sapiens, WI-38
human PARP1 = target: T1, human PARP1 (Homo sapiens, UniProt P09874); experiment: PARP inhibitor assay (HT Fluorescent Homogeneous PARP Inhibition Assay Kit); assay type: biochemical; conditions: for L = PARP inhibition: score
T1 construct: purchased Trevigen
T1 sequence (P09874 whole entry): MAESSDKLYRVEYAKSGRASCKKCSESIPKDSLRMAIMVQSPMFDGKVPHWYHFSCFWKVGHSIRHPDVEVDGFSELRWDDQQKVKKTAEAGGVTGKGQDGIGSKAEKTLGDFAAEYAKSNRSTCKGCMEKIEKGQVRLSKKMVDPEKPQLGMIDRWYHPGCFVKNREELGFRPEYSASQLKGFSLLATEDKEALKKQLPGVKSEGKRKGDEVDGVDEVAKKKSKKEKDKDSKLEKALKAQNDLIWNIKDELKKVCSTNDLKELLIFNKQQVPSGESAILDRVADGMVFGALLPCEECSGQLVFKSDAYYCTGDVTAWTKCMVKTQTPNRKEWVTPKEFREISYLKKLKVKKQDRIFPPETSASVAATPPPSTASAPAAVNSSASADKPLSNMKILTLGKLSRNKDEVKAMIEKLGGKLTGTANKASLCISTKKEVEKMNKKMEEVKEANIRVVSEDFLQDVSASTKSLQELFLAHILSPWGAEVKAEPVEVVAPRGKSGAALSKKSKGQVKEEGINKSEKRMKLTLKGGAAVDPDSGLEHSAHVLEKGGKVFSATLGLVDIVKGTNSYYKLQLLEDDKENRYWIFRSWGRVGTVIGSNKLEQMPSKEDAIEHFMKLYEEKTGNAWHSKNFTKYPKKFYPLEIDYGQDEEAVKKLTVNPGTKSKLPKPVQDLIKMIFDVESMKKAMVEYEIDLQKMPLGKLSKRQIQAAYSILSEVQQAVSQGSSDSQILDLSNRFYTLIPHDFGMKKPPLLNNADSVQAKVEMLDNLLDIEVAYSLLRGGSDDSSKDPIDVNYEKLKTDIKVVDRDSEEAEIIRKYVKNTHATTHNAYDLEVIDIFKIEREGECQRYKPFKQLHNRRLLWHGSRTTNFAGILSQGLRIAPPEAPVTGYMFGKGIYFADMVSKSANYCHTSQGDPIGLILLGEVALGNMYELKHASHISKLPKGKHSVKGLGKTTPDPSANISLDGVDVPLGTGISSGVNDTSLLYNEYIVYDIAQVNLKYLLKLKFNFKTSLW
Procedure, shortened: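 Compounds (10 μM final) incubated 30 min, room temperature, dark, with human PARP1, nicotinamide adenine dinucleotide and activated DNA. Fluorescent signal generated by 1 hr cycling with diaphorase and resazurin, then reaction stopped.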

WI-38 cells [2] = experiment: CdCl2 (cadmium) resistance assay; assay type: cell-based, human; conditions: for fold induction at 10 µM: Homo sapiens, 12 h, normalized ATP measurement
Procedure, shortened: (§1)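 Resistance to CdCl2 or MMS stress (12 h exposure) was scored in WI-38 fibroblasts pretreated with compound at 0.25–20 μM final, five doses, technical triplicates. MMS plates had compound added 24 h before MMS, after a shift to serum-free DMEM+2% BSA. Significance came from a global variance t-test over two independent runs.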

WI-38 cells [3] = experiment: MMS resistance assay; assay type: cell-based, human; conditions: for fold induction at 10 µM: Homo sapiens, 12 h, normalized ATP measurement
Procedure, shortened: as §1

[4] = test system: human dermal fibroblast (HDF) primary cells; experiment: H2O2-resistance in primary human dermal fibroblasts; assay type: cell-based; conditions: for fold induction at 10 µM: Homo sapiens; for Assay 6: H2O2-resistant, at 10 uM, human dermal fibroblast (HDF) primary cells: YES/NO
[5] = test system: PC12 cells expressing poly(Q)103-Htt-EGFP; experiment: Poly(Q) toxicity & viability analysis (cellular model of Huntington's disease); assay type: cell-based, rat; conditions: for M = Huntington's poly-Q toxicity attenuation: score; for K = Huntington's poly-Q toxicity attenuation: summary score
Procedure, shortened: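 Readout is CellTiter-Glo ATP content measured after 48 hrs. Cells are a PC12 line stably expressing inducible poly(Q)103-Htt-EGFP, where induction produces toxic aggregates.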

WI-38 cells [6] = conditions: for Percentage of propidium iodide-positive dead cells (no H2O2 stress treatment), at 10 uM: negative control 0.41% ± 0.23%
Procedure: WI-38 cells were seeded on 384-well plates for 24 hrs and then incubated with small molecules for 24 hrs. […] Images were collected on an INCell Analyzer 2000 (GE) and analyzed with the Developer software.

[7] = Summary score for characterization of 38 core set hits; conditions: for D = Triple resistant: 2-point score, multiplex resistance (cadmium, MMS, H2O2); for S = Sum of Negative scores: human; for C = H2O2- & Cd-resistant: score, resistance to both H2O2 and cadmium
Procedure, shortened: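 Hits from a small-molecule screen for H2O2 resistance were scored across characterization assays. Multiplex resistance, FOXO3 and/or NRF2 activation and mTOR down-regulation each earned 2 points. C. elegans lifespan, tested in 4 to 6 independent trials, scored 0–2, and DNA-damaging or cytotoxic effects in cultured human cells cost one point.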

[8] = H2O2 3 hrs, 10 uM, n = 6, negative control 5.44% ± 0.79%, read-out: Percentage of propidium iodide-positive dead cells (under H2O2 stress treatment), 3 hrs
[9] = pre-treatment at 10 uM, 3.5 hours of H2O2, DMSO control 27.4% ± 6.5%, */**/*** = reduced by one/two/three standard deviations, read-out: Percentage of propidium iodide-positive dead cells (under H2O2 stress treatment), at 10 uM
[10] = Exp. 1, WI-38 cells, read-out: Exp. 1, under Cd2Cl2 stress treatment, at 10 uM (fold change)
[11] = Exp. 2, WI-38 cells, read-out: Exp. 2, under Cd2Cl2 stress treatment, at 10 uM (fold change)
[12] = score in summary of 38 core set hits
[13] = Exp. 1, WI-38 cells, read-out: Exp. 1, under MMS stress treatment, at 10 uM (fold change)
[14] = Exp. 2, WI-38 cells, read-out: Exp. 2, under MMS stress treatment, at 10 uM (fold change)
[15] = Experiment 1, HDF cells, read-out: Experiment 1, HDF cells (under H2O2 stress treatment), at 10 uM (fold change)
[16] = Experiment 2, HDF cells, read-out: Experiment 2, HDF cells (under H2O2 stress treatment), at 10 uM (fold change)

SMILES | Assay 7: H2O2-resistant, at 10 uM, validated by propidium iodide (PI) cell-death imaging (WI-38 cells [1]; 10 uM) | cytotoxicity at 10 µM (WI-38 cells [1]; [8]) [%] | cytotoxicity at 10 µM (WI-38 cells [1]; [9]) [%] | L = PARP inhibition (human PARP1) | fold induction at 10 µM (WI-38 cells [2]; [10]) | fold induction at 10 µM (WI-38 cells [2]; [11]) | A = Cadmium resistant (WI-38 cells [2]; [12]) | A = Cadmium resistant (WI-38 cells [2]; summary score) | C = H2O2- & Cd-resistant (WI-38 cells [2]; summary score) | fold induction at 10 µM (WI-38 cells [3]; [13]) | fold induction at 10 µM (WI-38 cells [3]; [14]) | B = MMS resistant (WI-38 cells [3]; [12]) | B = MMS resistant (WI-38 cells [3]; summary score) | D = Triple resistant (WI-38 cells [3]; summary score) | fold induction at 10 µM [4, 15] | fold induction at 10 µM [4, 16] | Assay 6: H2O2-resistant, at 10 uM, human dermal fibroblast (HDF) primary cells [4] | M = Huntington's poly-Q toxicity attenuation [5] | K = Huntington's poly-Q toxicity attenuation [5] | Percentage of propidium iodide-positive dead cells (no H2O2 stress treatment), at 10 uM (WI-38 cells [6]) | also measured
COc1ccc(/C=C2\SC(=N)N(c3nccs3)C2=O)cc1 [O21] | YES | 2.05 | 7.8 | 0 | 0.03 | 0.04 | 0 | 0 | 0 | 0.74 | 0.94 | 0 | 0 | 0 | 140 | 25.5 | YES | 0 | 0 | 1.09% ± 0.39%, | PI cell-death imaging without H2O2 (indicating potential toxicity) (WI-38 cells [6]; Assay 8(k), without H2O2, at 10 uM): YES; Percentage of propidium iodide-positive (dead) cells under normal conditions (qualitative) (WI-38 cells [6]; WI-38, no H2O2): increased the percentage; PI-positive dead cells under normal conditions (WI-38 cells [6]; WI-38, no H2O2, control 0.4±0.2%): 1.1±0.4%; D = Triple resistant [7]: 0; S = Sum of Negative scores [7]: 2; C = H2O2- & Cd-resistant [7]: 0
CCCC(=O)Nc1ccc(-c2cn3cccc(C)c3n2)cc1 [O12] | YES | 0.74 | 0.4 | 0 | 1.36 | 1.59 | 1 | 0 | 0 | 0.78 | 2 | 0 | 0 | 0 | 264 | 49.2 | YES | 0 | 0 | 0.45% ± 0.05%, | cytotoxicity at 10 µM (WI-38 cells [1]; H2O2 4 hrs, 10 uM, n = 6, negative control 16.81% ± 1.42%, read-out: Percentage of propidium iodide-positive dead cells (under H2O2 stress treatment), 4 hrs): 0.77%; cytotoxicity at 10 µM (WI-38 cells [1]; H2O2 5 hrs, 10 uM, n = 6, negative control 22.50% ± 1.53%, read-out: Percentage of propidium iodide-positive dead cells (under H2O2 stress treatment), 5 hrs): 1.33%; Inhibition of PARP1 (human PARP1; 10 μM, in vitro): inhibitors of PARP1; CdCl2-resistant (WI-38 cells [2]): YES; H2O2- & CdCl2-resistant (WI-38 cells [2]): YES; CdCl2-resistant (WI-38 cells [2]; WI-38 cells, 10 μM): YES; H2O2- & CdCl2-resistant (WI-38 cells [2]; WI-38 cells, 10 μM, both stressors): YES; Assay 2: Cadmium-resistant (WI-38 cells [2]; YES/NO, * indicates partial): NO *; D = Triple resistant [7]: 0; S = Sum of Negative scores [7]: 0; C = H2O2- & Cd-resistant [7]: 1
